Assay results taken from a melting point compilation (Tetko et al.).
Non-standard residues stand in square brackets, D forms with d. Residues, ends and D or L forms follow the SMILES beside them. *: point of attachment. Phe(2-Me) = Cc1ccccc1C[CH](N)C(=O)O; Tle = CC(C)(C)[CH](N)C(=O)O; X3 = CC(C)(C)OC(=O)CCC(=O)*; Cbz = O=C(OCc1ccccc1)*; X4 = CCC(N*)C(OC)OC; OtBu = CC(C)(C)O*

Structure (SMILES)	melting point
COC(C)c1nc2c(N)nc3ccccc3c2n1CCOCCNC(=O)NCCCCCCCCNC(=O)NCCOCCn1c(C(C)OC)nc2c(N)nc3ccccc3c21 (configuration not stated)	172 to 177 °C
CCNC(=O)[C@@H]1CCCN1C(=O)[C@H](CCCNC(=N)N)NC(=O)[C@H](CC(C)C)NC(=O)[C@@H](Cc1ccc2ccccc2c1)NC(=O)[C@H](Cc1ccc(O)cc1)NC(=O)[C@H](CO)NC(=O)[C@H](Cc1c[nH]c2ccccc12)NC(=O)[C@H](Cc1c[nH]cn1)NC(=O)[C@@H]1CCC(=O)N1	180 to 190 °C
[C-]#[N+]CC(=O)N(c1ccccc1)C(C)C	80 to 82 °C
CC(C)CCCC(C)C1CCC2C3CC=C4CC(N(CCCNC(=O)CCNC(=O)CCNC(=O)CCCCCNc5ccc([N+](=O)[O-])c6nonc56)S(=O)(=O)c5ccccc5[N+](=O)[O-])CCC4(C)C3CCC12C (configuration not stated)	113 to 114 °C
CCOC(=O)C1=C(COCC(O)C(O)COCC2=C(C(=O)OCC)C(c3ccccc3Cl)C(C(=O)OC)=C(C)N2)NC(C)=C(C(=O)OC)C1c1ccccc1Cl (configuration not stated)	76.5 to 78 °C
CCCC(=O)c1c[nH]c2ccc(COC(=O)c3ccccc3)cc2c1=O	220 to 223 °C
CCOCc1nc(C(C)(C)O)c(C(=O)OCc2oc(=O)oc2C)n1Cc1ccc(-c2ccccc2-c2nnnn2C(c2ccccc2)(c2ccccc2)c2ccccc2)cc1	129 to 130 °C
CC(=O)OCCn1c([N+](=O)[O-])cnc1CO	138 to 145 °C
O=S1(=O)c2ccccc2N(c2ccccc2)c2ccc(C=Cc3ccc(-c4ccc(C=Cc5ccc6c(c5)S(=O)(=O)c5ccccc5N6c5ccccc5)cc4)cc3)cc21	392 °C
CCc1nc(OC)c(NC(=O)N2CCN(c3cc(OC)c(OC)c(OC)c3)CC2)cc1C(=O)NC(C)C(=O)Nc1cc(CO)cc(Nc2c3ccccc3nc3ccccc23)c1 (configuration not stated)	205 to 207 °C
CCCCCc1ccc(OCCCCCCOc2ccc(-c3ccc4c5c(c(C(=O)OCC)cc4c3)C=CC(c3ccccc3)(c3ccc(N4CCCCC4)cc3)O5)cc2)cc1 (configuration not stated)	85 to 86 °C
CCCCCCCCCCCCS(=O)(=O)c1cc2c(cc1S(=O)(=O)CCCCCCCCCCCC)C(=O)c1c(c(O)c3cc(S(=O)(=O)CCCCCCCCCCCC)c(S(=O)(=O)CCCCCCCCCCCC)cc3c1O)C2=O	180 to 183 °C
O=C1CCc2cc(O)c(I)cc21	114 to 115 °C
CCCCc1nn(-c2cc(NC(=O)c3ccccc3)ccc2C(F)(F)F)c(=O)n1Cc1ccc(-c2ccccc2S(=O)(=O)NC(=O)c2ccccc2Cl)cc1F	210 to 212 °C
CC(Br)C(=O)N=S(C)(=O)c1ccccc1 (configuration not stated)	109 to 110 °C
CO/N=C(\C(=O)N[C@@H]1C(=O)N2C(C(=O)OC(C)(C)C)=C(CI)SC[C@H]12)c1nc(C(c2ccccc2)(c2ccccc2)c2ccccc2)sc1N	150 °C
[C-]#[N+]c1c(C)cccc1C(C)(C)C	60 to 62 °C
COC(=O)Cc1ccc(C(NC(=O)CCC(Cc2ccccc2)(NC(=O)c2ccc(N(C)C3CCc4cc5nc(C)n(COC(=O)C(C)(C)C)c(=O)c5cc43)cc2F)C(=O)O)C(=O)OC)cc1 (configuration not stated)	85 to 90 °C
Cc1cc(CCC(=O)OCC(COC(=O)CCc2cc(C)c(O)c(C(C)(C)C)c2)(COC(=O)CCc2cc(C)c(O)c(C(C)(C)C)c2)COC(=O)CCc2cc(C)c(O)c(C(C)(C)C)c2)cc(C(C)(C)C)c1O	45 to 55 °C

Structure (SMILES)	melting point
CCCCCCCCCCCCCCCCCCN(CCCCCCCCCCCCCCCCCC)C(=O)c1cc(NS(=O)(=O)c2ccc(S(=O)(=O)CCC#N)cc2)c2ccccc2c1O	85 to 86 °C
Cc1c(O)cc(C(C)(C)C)c(O)c1C(=O)Nc1ccc(S(=O)(=O)C(F)(F)F)cc1Cl	163 to 166 °C
CCCCCCCCCCCCCC(=O)Nc1ccc(Cl)c(NC2=NN(c3c(Cl)cc(Cl)cc3Cl)C(=O)C2SCCCCOc2cccc(C)c2)c1 (configuration not stated)	123 to 124 °C
CN(C)CCCN1c2ccccc2Sc2ccc(Cl)cc21	57 °C
CC(C)(O)C(=O)c1ccc(C(OC(=O)c2ccc(C(=O)OC(c3ccc(C(=O)C(C)(C)O)cc3)c3ccc(C(=O)C(C)(C)O)cc3)cc2)c2ccc(C(=O)C(C)(C)O)cc2)cc1	102 °C
CCCCCCCCCCCCCCCc1cccc(Oc2ccccc2SSc2ccccc2Oc2cccc(CCCCCCCCCCCCCCC)c2)c1	89 to 90 °C
C=C(C)[C@@H]1CC[C@]2(C(=O)N[C@@H]3C[C@H](C(=O)OCc4ccccc4)C3(C)C)CC[C@]3(C)[C@H](CC[C@@H]4[C@@]5(C)CC[C@H](OC(=O)CC(C)(C)C(=O)O)C(C)(C)[C@@H]5CC[C@]43C)[C@@H]12	64.7 to 100 °C
N=C(NC(=O)OCc1ccccc1)N(CCCC(NC(=O)C(Cc1ccccc1)NC(=O)c1ccccc1)C(=O)Oc1cccc2ccccc12)C(=O)OCc1ccccc1 (configuration not stated)	177 to 185 °C
CCCCCCCCN=C(O)c1c(Sc2ccc([N+](=O)[O-])cc2)c(Sc2ccc([N+](=O)[O-])cc2)c(Sc2ccc([N+](=O)[O-])cc2)c(Sc2ccc([N+](=O)[O-])cc2)c1C(=O)O	202 to 204 °C
CCOP(=O)(OCC)Oc1ccc([N+](=O)[O-])cc1	35 to 38 °C
Brc1cc(C(Br)(Br)C(Br)(Br)C(Br)(Br)c2ccccc2)c(Br)c(Br)c1Br	309 to 311 °C
CC12CC3CC(C)(C1)CC(N)(C3)C2	153 °C
CC(CCCCCCCCCCCCc1scc(Br)c1Br)C(=O)C(C)CCCCCCCCCCCCc1scc(Br)c1Br (configuration not stated)	50 to 52 °C
CN(C)C(=O)c1cc2c(nc(C3CC3)n2C)c(O)c1CCC(O)c1ccccc1 (configuration not stated)	92 to 94 °C
CS(C)(=O)=NC(=O)c1cccc(Oc2ccc(C(F)(F)F)cc2Cl)c1	110 to 113 °C
CCCC(=O)C(=CNc1ccc(COC(=O)c2ccccc2)cc1)C(=O)OCC	73 to 75 °C
CCCCCC/C(=C\C=C\C(=O)O)c1ccc(OC)cc1	88 to 89.5 °C
CCCNc1nc2cccc(C(=O)OCC)c2n1Cc1ccc(-c2ccccc2-c2nnn[nH]2)cc1	170 to 172 °C

Now from value to compound:

melting point	Structure (SMILES)
135 to 140 °C	O=C(OCC(OC(=O)C1CCCCC1)C(OC(=O)C1CCCCC1)C(OC(=O)C1CCCCC1)C(COC(=O)C1CCCCC1)OC(=O)C1CCCCC1)C1CCCCC1 (configuration not stated)
122 °C	CC(=O)OC(CN1C(=O)C2(CC(C)(C)N(C(C)=O)C(C)(C)C2)OC12CCCCCCCCCCC2)CN1C(=O)C2(CC(C)(C)N(C(C)=O)C(C)(C)C2)OC12CCCCCCCCCCC2
71 to 73 °C	O=C(Oc1c(I)cc(I)cc1I)C(F)(F)C(F)(F)C(F)(F)C(F)(F)C(F)(F)C(F)(F)F
238 to 239 °C	CN(c1cccc2cc(C3=NCC(C(=O)N4CCOCC4)S3)[nH]c12)S(=O)(=O)c1cccs1 (configuration not stated)
221 to 223 °C	CCOc1ccc(C(=CC2(C=C(c3ccc(OCC)cc3)c3ccc(N4CCCC4)cc3)OC(=O)c3c(Cl)c(Cl)c(Cl)c(Cl)c32)c2ccc(N3CCCC3)cc2)cc1 (configuration not stated)
171 to 174 °C	CSc1ccccc1C(=O)Nc1ccc(C(=O)N2Cc3cccn3Cc3ccccc32)cc1
105 °C	N#Cc1cccc(N2CCOCC2)c1
266 to 270 °C	O=C(Nc1ccc(Cl)cc1)NC1CCN(S(=O)(=O)c2ccc(C(=O)O)cc2)CC1
242 to 244 °C	CCC(NC(=O)C(CC(C)C)NC(=O)C(NC(=O)C(Cc1ccccc1C)NC(=O)C(CCC(=O)OC(C)(C)C)NC(=O)C(CC(=O)OC(C)(C)C)NC(=O)CCC(=O)OC(C)(C)C)C(C)(C)C)C(OC)OC (X3-D(OtBu)E(OtBu)[Phe(2-Me)][Tle]L-X4; configuration not given here)
230 to 235 °C	CC(=O)C1CCC2C3CCC4CC(O)(C#Cc5cccnc5)CCC4(C)C3CCC12C (configuration not stated)
119 to 121 °C	O=C(O)Cc1cccc(-c2cc(CCCC(=O)N3CCC(CCCC4CCN(C(=O)CCCc5ccc(OC6OC(CO)C(O)C(O)C6O)c(-c6cccc(CC(=O)O)c6)c5)CC4)CC3)ccc2OC2OC(CO)C(O)C(O)C2O)c1 (configuration not stated)
245 to 247 °C	Cc1ccc(S(=O)(=O)N2CCN(S(=O)(=O)c3ccc(C)cc3)CCN(S(=O)(=O)c3ccc(C)cc3)CC(C)N(S(=O)(=O)c3ccc(C)cc3)CCN(S(=O)(=O)c3ccc(C)cc3)CC2)cc1 (configuration not stated)
54 °C	COCCOCCOc1cc2c3cc(OCCOCCOC)c(OCCOCCOC)cc3c3cc(OCCOCCOC)c(OCCOCCOC)cc3c2cc1OCCOCCOC
57 to 58 °C	CCCCCCCCCCSc1c(SCCCCCCCCCC)c(SCCCCCCCCCC)c(C(O)=NCCO)c(C(=O)O)c1SCCCCCCCCCC
216 to 218 °C	O=C1COc2cc3c(cc2O1)C1(CO3)CN(Cc2cnccn2)c2ccccc21 (configuration not stated)
191 to 192 °C	CCOCc1nc2c(N)nc3cc(-c4cccnc4)ccc3c2n1CC1CCN(C(=O)C2CCCO2)CC1 (configuration not stated)
221 to 223 °C	COC(=O)C(CC(C)C)NC(=O)C(Cc1ccccc1)NC(=O)C(Cc1ccc(O)cc1)NC(=O)C(CO)NC(=O)C(Cc1c[nH]c2ccccc12)NC(=O)OCc1ccccc1 (configuration not stated) (Cbz-WSYFL-OMe; configuration not given here)
154 to 157 °C	FC(F)(F)C1(CNC2=NCCN2)CCCCC1
244 to 245 °C	C=C(C)C(=O)Nc1ccc2ncnc(Nc3cccc(Br)c3)c2c1
195 to 198 °C	CCc1c(CC[Si](Cl)(Cl)Cl)c(CC[Si](Cl)(Cl)Cl)c(CC[Si](Cl)(Cl)Cl)c(CC[Si](Cl)(Cl)Cl)c1CC[Si](Cl)(Cl)Cl
158 to 159 °C	CCOC(=O)c1cc2cc(OC)cc(NS(=O)(=O)c3cccs3)c2[nH]1
218 to 220 °C	CC(=O)OCC1OC(OC2C(COC(C)=O)OC(OC3C(CO)OC(OCCBr)C(OC(=O)c4ccccc4)C3OC(=O)c3ccccc3)C(OC(C)=O)C2OC(C)=O)C(OC(C)=O)C(OC(C)=O)C1OC(C)=O (configuration not stated)
248 to 250 °C	CSC1=NCc2cc(Cl)ccc2-n2c(C)nnc21
147 to 149 °C	CC(=O)OC(COc1ccc(C(C)(C)c2ccc(OCC(CN3C(=O)NC4(CC(C)(C)N(C(C)=O)C(C)(C)C4)C3=O)OC(C)=O)cc2)cc1)CN1C(=O)NC2(CC(C)(C)N(C(C)=O)C(C)(C)C2)C1=O (configuration not stated)
120 to 125 °C	CN=S(=O)(NC(=O)Nc1nc(OC)cc(OC)n1)c1ccccc1Br (configuration not stated)
